Test results as given in US4281121A, “1,3,4-Thiadiazole-2-carboxylic acid derivatives, process for making the same and fungicidal and nematocidal compositions containing same” (Schering Aktiengesellschaft, priority 1978, dated 1981).
Where two headings read alike, the source gives them in different places.

What was measured:
Tilletia caries [1] = test: Seed treatment in open field tests regarding infestation by Tilletia caries (oats); format: in vivo; settings: winter oats; 100 g active agent/100 kg; about 9 months
Plasmopara viticola = test: Prophylactic leaf treatment of grapevines in the hothouse against Plasmopara viticola; format: in vivo
Procedure, shortened: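 Grapevines (5–8 leaves) sprayed to runoff with compound as 20% spray powder, then after drying inoculated on leaf undersides with sporangial suspension (~20,000/ml). Incubated at 22–24 °C, saturated humidity, 3–4 days normal humidity (30–70%), then one day saturated; activity from mean % infested leaf area per treatment.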

Tilletia caries [2] = test: Treatment of oat seeds infested with Tilletia caries (spore germination); format: in vivo
Piricularia oryzae = format: in vivo; settings: 5 days
Septoria nodorum = test: Treatment of oat seeds against Septoria nodorum; format: in vivo; settings: 50 g active agent/100 kg seeds; 4 weeks
Description: Effects of the treatment of oat seeds against Septoria nodorum
They were then seeded on a moist substrate for germination. As a control untreated seeds were likewise seeded. At about 6° C. the seed was incubated in an air-conditioned chamber until after 4 weeks the proportion of diseased seeds could be determined and the activity of the fungicidal compounds was calculated on the basis of the following formula: [formula]
The active agents were applied in the form of 20% concentration pulverulent compositions.

[3] = system: Helminthosporium gramineum; test: Seed treatment in open field tests for infestation by Helminthosporium gramineum (barley); format: in vivo; settings: summer barley, about 3 months
Description: Seed treatment in open field tests for infestation by Helminthosporium gramineum
The active agents were used in the form of pulverulent compositions. After about 8 months in case of winter barley and after about 3 months in case of summer barley the infested plants were counted and the activity was calculated by the formula [formula]

Helminthosporium gram = settings: about 5 weeks
Description: Treatment of barley seeds infested with Helminthosporium gram
After emergence, the plants were subjected to illumination for 12 hours per day. After about 5 weeks the infested plants were counted and the total number of plants for each test were also counted. The active agents tested were used as pulverulent compositions.

Pythium ultimum = test: Threshold concentration test for use of the compounds against Pythium ultimum (infested soil, garden peas); format: in vivo; design: key to root evaluation (1-4): 4: white roots without fungous necrosis; 3: white roots, minor fungous necrosis; 2: brown roots, already more pronounced fungous necrosis; 1: heavy fungous necrosis, roots rotted; settings: for root evaluation (1-4): 3 weeks; for number of sound peas: 20 grains per dish, 3 weeks at 20-24° C.
Procedure, shortened: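 Pulverulent agents at 20% concentration mixed evenly into soil heavily infested with Pythium ultimum, then garden peas ('Wunder von Kelvedon', 20 per dish) sown at once. After three weeks at 20–24 °C in a hothouse, sound peas counted and roots scored on a 1–4 scale.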

Fusarium nivale = test: Treatment of rye seeds against Fusarium nivale; format: in vivo; settings: 100 g/100 kg; about 4 weeks
Description: Treatment of rye seeds against Fusarium nivale
Rye seeds with a natural infestation by Fusarium nivale were seeded in earth filled pots and left for germination at about 6° C. Part of the seeds was treated before seeding with the active agents as appears from the subsequent table and part was untreated. After emergence of the seedlings the plants were illuminated with artificial light for 12 hours each day. After about 4 weeks the degree of infestation was determined in percentages. The fungicidal activity was calculated on the basis of the following formula: [formula]
The active agents were used in the form of 20% concentration compositions.

Fusarium avenaceum = test: Inhibition of fungus in a nutrient solution: Fusarium avenaceum; format: cell-based; settings: 6 days at 21-23° C.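 Note: 0 means no fungus growth and higher grades mean more surface covered.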
Description: Inhibition of fungus in a nutrient solution
20 ml of a nutrient solution of grape juice and water (1:1) were filled into a glass vial of a 100 ml capacity and were mixed with the pulverulent active agents which appear from the subsequent table. Thereafter, the solution was inoculated with conidia (spores) of the test fungi.
After an incubation time of 6 days at 21° to 23° C. the fungus development on the surface of the nutrient solution was evaluated. The test fungi used were the following: Penicillium digitatum, Botrytis cinerea, Alternaria solani, Fusarium avenaceum.
The evaluation was carried out at a scale from 0 to 5 as follows: […]

Alternaria solani = test: Inhibition of fungus in a nutrient solution: Alternaria solani; format: cell-based; settings: 6 days at 21-23° C.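 Note: 0 means no fungus growth and higher grades mean more surface covered.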
Penicillium digitatum = test: Inhibition of fungus in a nutrient solution: Penicillium digitatum; format: cell-based; settings: 6 days at 21-23° C.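 Note: 0 means no fungus growth and higher grades mean more surface covered.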
Botrytis cinerea = test: Inhibition of fungus in a nutrient solution: Botrytis cinerea; format: cell-based; settings: 6 days at 21-23° C.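 Note: 0 means no fungus growth and higher grades mean more surface covered.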
[4] = concentration of active agent 0.025 (unit not given)
[5] = concentration of active agent 0.1 (percentages)
[6] = 25 g active agent/100 kg barley
[7] = 50 g active agent/100 kg barley
[8] = 100 g active agent/100 kg barley

SMILES	% activity (Plasmopara viticola; [4]) [%]	% activity (Tilletia caries [2]; 10 g active agent per 100 kg) [%]	% activity (Tilletia caries [2]; 20 g active agent per 100 kg) [%]	% activity (Piricularia oryzae; [5]) [%]	% activity (Septoria nodorum) [%]	% activity [3, 6] [%]	% activity [3, 7] [%]	% activity [3, 8] [%]	% activity (Tilletia caries [2]; 50 g active agent per 100 kg) [%]	% activity (Helminthosporium gram; 50 g active agent per 100 kg) [%]	root evaluation (1-4) (Pythium ultimum; 20 mg/l soil)	number of sound peas (Pythium ultimum; 20 mg/l soil)	root evaluation (1-4) (Pythium ultimum; 40 mg/l soil)	number of sound peas (Pythium ultimum; 40 mg/l soil)	root evaluation (1-4) (Pythium ultimum; 80 mg/l soil)	number of sound peas (Pythium ultimum; 80 mg/l soil)	% activity (Helminthosporium gram; 10 g active agent per 100 kg) [%]	% activity (Helminthosporium gram; 20 g active agent per 100 kg) [%]	further results
CS(=O)(=O)c1nnc(C(=O)NCC2CCCCC2)s1 [5-methylsulfonyl-1,3,4-thiadiazole-2-carboxylic acid cyclohexylmethylamide]	97	99	100	80	–	–	–	–	–	–	–	–	–	–	–	–	–	–	% activity (Tilletia caries [1]): 100%; % activity (Plasmopara viticola; concentration of active agent 0.001 (unit not given)): 76%; % activity (Plasmopara viticola; concentration of active agent 0.005 (unit not given)): 88%; % activity (Tilletia caries [2]; 5 g active agent per 100 kg): 86%; % activity (Piricularia oryzae; concentration of active agent 0.02 (percentages)): 60%
CCCNC(=O)c1nnc(S(=O)(=O)CC)s1 [5-ethylsulfonyl-1,3,4-thiadiazole-2-carboxylic acid-propylamide]	–	100	100	–	81	95	99.3	100	100	92	–	–	–	–	–	–	–	–	–
CCS(=O)(=O)c1nnc(C(=O)NC(C)C)s1 [5-ethylsulfonyl-1,3,4-thiadiazole-2-carboxylic acid-isopropylamide]	92	100	100	99	86	96	100	99.8	100	100	3	16	3	15	4	16	95	98	–
CCS(=O)(=O)c1nnc(C(N)=O)s1 [5-ethylsulfonyl-1,3,4-thiadiazole-2-carboxamide]	–	93	100	–	–	–	–	–	–	100	2	18	4	18	4	20	97	100	% activity (Tilletia caries [2]; 5 g active agent per 100 kg): 87%; % activity (Fusarium nivale): 99.2%
CCS(=O)(=O)c1nnc(C(=O)NCCCOC)s1 [5-ethylsulfonyl-1,3,4-thiadiazole-2-carboxylic acid-(3-methoxypropyl)-amide]	90	100	100	97	86	94	96	100	100	100	1	11	4	18	4	17	99	99	–
CCCCNC(=O)c1nnc(S(=O)(=O)CC)s1 [5-ethylsulfonyl-1,3,4-thiadiazole-2-carboxylic acid-butylamide]	–	100	100	97	–	–	–	100	100	–	1	8	4	16	4	20	–	–	fungus development on the surface of the nutrient solution (0-5) (Fusarium avenaceum; 0.002%): 1; fungus development on the surface of the nutrient solution (0-5) (Fusarium avenaceum; 0.004%): 0; fungus development on the surface of the nutrient solution (0-5) (Alternaria solani; 0.002%): 1; fungus development on the surface of the nutrient solution (0-5) (Alternaria solani; 0.004%): 0; fungus development on the surface of the nutrient solution (0-5) (Penicillium digitatum; 0.002%): 1; fungus development on the surface of the nutrient solution (0-5) (Penicillium digitatum; 0.004%): 0; fungus development on the surface of the nutrient solution (0-5) (Botrytis cinerea; 0.002%): 2 (5 to 10% of the surface covered by the fungus turf); fungus development on the surface of the nutrient solution (0-5) (Botrytis cinerea; 0.004%): 0
CCS(=O)(=O)c1nnc(C(=O)NCCOC)s1 [5-ethylsulfonyl-1,3,4-thiadiazole-2-carboxylic acid-(2-methoxyethyl)-amide]	–	100	100	90	86	92	98	99.8	100	100	1	13	4	16	4	16	100	99	–
CCOC(=O)c1nnc(S(=O)(=O)CC)s1 [5-ethylsulfonyl-1,3,4-thiadiazole-2-carboxylic acid-ethylester]	–	–	–	95	–	–	–	–	–	–	–	–	–	–	–	–	–	–	fungus development on the surface of the nutrient solution (0-5) (Fusarium avenaceum; 0.002%): 1; fungus development on the surface of the nutrient solution (0-5) (Fusarium avenaceum; 0.004%): 0; fungus development on the surface of the nutrient solution (0-5) (Alternaria solani; 0.002%): 0; fungus development on the surface of the nutrient solution (0-5) (Alternaria solani; 0.004%): 0; fungus development on the surface of the nutrient solution (0-5) (Penicillium digitatum; 0.002%): 1; fungus development on the surface of the nutrient solution (0-5) (Penicillium digitatum; 0.004%): 0; fungus development on the surface of the nutrient solution (0-5) (Botrytis cinerea; 0.002%): 2 (5 to 10% of the surface covered by the fungus turf); fungus development on the surface of the nutrient solution (0-5) (Botrytis cinerea; 0.004%): 0
